Data set [1] addresses GLP-1R (Homo sapiens, UniProt P43220). Kind of data set: GLP-1R activation: cAMP increase in CHO cells stably expressing GLP-1R. It is filed as cell-based.
Data set [2] is described as follows: Microsomal stability, human liver microsomes (predicted hepatic clearance). Particulars: predicted from in vitro microsomal stability data.
The mark [3] stands for this setting: cAMP increase, CHO cells stably expressing GLP-1R, 10 point dose response, 30 minutes incubation, read-out: EC50.

Results on 9 compounds are retold here after patent US11702404B2, “GLP-1R modulating compounds” (priority 2019, dated 2023).

Read-outs that look alike come from different tables or passages of the source.

A word on the EC50: it is the concentration at which the effect is half-maximal.

Sequence of GLP-1R (P43220 24-463): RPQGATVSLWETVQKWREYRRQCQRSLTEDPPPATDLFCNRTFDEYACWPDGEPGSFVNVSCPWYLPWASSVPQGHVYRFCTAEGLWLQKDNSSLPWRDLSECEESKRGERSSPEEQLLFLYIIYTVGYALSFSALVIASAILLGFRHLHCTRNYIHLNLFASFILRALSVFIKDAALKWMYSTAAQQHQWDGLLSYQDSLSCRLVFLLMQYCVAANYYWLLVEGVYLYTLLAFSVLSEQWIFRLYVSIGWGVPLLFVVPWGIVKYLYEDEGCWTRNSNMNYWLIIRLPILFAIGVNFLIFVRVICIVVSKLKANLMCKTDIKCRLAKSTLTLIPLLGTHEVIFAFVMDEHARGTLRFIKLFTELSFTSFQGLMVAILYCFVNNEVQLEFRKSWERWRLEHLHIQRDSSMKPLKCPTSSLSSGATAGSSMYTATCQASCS

For `N#Cc1ccc(COc2nccc(-c3ccc(Cc4nc5ccc(C(=O)O)cc5n4C[C@@H]4CCO4)cc3F)n2)c(F)c1` [Example 403, (S)-2-(4-(2-((4-cyano-2-fluorobenzyl)oxy)pyrimidin-4-yl)-3-fluorobenzyl)-1-(oxetan-2-ylmethyl)-1H-benzo[d]imidazole-6-carboxylic acid], the half-maximal effective concentration (EC50) in data set [1] (setting [3]) is 0.89 nM. Further, the “Predicted Hepatic Clearance (Pred. Cl.)” value in data set [2] is 4.95 mL/min/kg.
`CCn1cnnc1Cn1c(Cc2ccc(-c3cccc(OCc4ccc(C#N)cc4F)n3)cc2F)nc2ccc(C(=O)O)cc21` [Example 404, 2-(4-(6-((4-cyano-2-fluorobenzyl)oxy)pyridin-2-yl)-2-fluorobenzyl)-1-((4-ethyl-4H-1,2,4-triazol-3-yl)methyl)-1H-benzo[d]imidazole-6-carboxylic acid]: in data set [1] (setting [3]), the EC50 is 1.71 nM. The “Predicted Hepatic Clearance (Pred. Cl.)” value in data set [2] is below 1.83 mL/min/kg.
For the compound `COCCn1c(Cc2c(F)cc(-c3ccnc(OCc4ccc(C#N)cc4F)n3)c(F)c2F)nc2ccc(C(=O)O)cc21` [Example 405, 2-(4-(2-((4-cyano-2-fluorobenzyl)oxy)pyrimidin-4-yl)-2,3,6-trifluorobenzyl)-1-(2-methoxyethyl)-1H-benzo[d]imidazole-6-carboxylic acid], the half-maximal effective concentration (EC50) in data set [1] (setting [3]) was 1.71 nM. The “Predicted Hepatic Clearance (Pred. Cl.)” value in data set [2] is 5.5 mL/min/kg.
The corresponding values for `N#Cc1ccc(COc2nccc(-c3ccc(Cc4nc5c(F)cc(C(=O)O)cc5n4C[C@@H]4CCO4)c(F)c3)n2)c(F)c1` [Example 406, (S)-2-(4-(2-((4-cyano-2-fluorobenzyl)oxy)pyrimidin-4-yl)-2-fluorobenzyl)-4-fluoro-1-(oxetan-2-ylmethyl)-1H-benzo[d]imidazole-6-carboxylic acid] are 0.18 nM and 3.83 mL/min/kg.
Taken in the same sequence, the figures for `N#Cc1ccc(COc2cccc(-c3ccc(Cc4nc5ccc(C(=O)O)cc5n4Cc4cocn4)c(F)c3)n2)c(F)c1` [Example 407, 2-(4-(6-((4-cyano-2-fluorobenzyl)oxy)pyridin-2-yl)-2-fluorobenzyl)-1-(oxazol-4-ylmethyl)-1H-benzo[d]imidazole-6-carboxylic acid] were 4.69 nM and 3.75 mL/min/kg.
With `COCCn1c(Cc2c(F)cc(-c3cccnc3OCc3cc(Cl)ccc3F)cc2F)nc2ccc(C(=O)O)cc21` [Example 408, 2-(4-(2-((5-chloro-2-fluorobenzyl)oxy)pyridin-3-yl)-2,6-difluorobenzyl)-1-(2-methoxyethyl)-1H-benzo[d]imidazole-6-carboxylic acid], the EC50 in data set [1] (setting [3]) was at least 1000 nM. In addition, the “Predicted Hepatic Clearance (Pred. Cl.)” value in data set [2] was 10.1 mL/min/kg.
Taken in the same sequence, the figures for `COc1cc(C#N)ccc1COc1cccc(-c2cc(F)c(Cc3nc4ccc(C(=O)O)cc4n3CC3(CF)CC3)cc2F)n1` [Example 409, 2-(4-(6-((4-cyano-2-methoxybenzyl)oxy)pyridin-2-yl)-2,5-difluorobenzyl)-1-((1-(fluoromethyl)cyclopropyl)methyl)-1H-benzo[d]imidazole-6-carboxylic acid] were 0.37 nM and below 1.83 mL/min/kg.
With `COCCn1c(Cc2ccc(-c3cccc(OCc4ccc(C#N)cc4F)n3)cc2CF)nc2ccc(C(=O)O)cc21` [Example 410, 2-(4-(6-((4-cyano-2-fluorobenzyl)oxy)pyridin-2-yl)-2-(fluoromethyl)benzyl)-1-(2-methoxyethyl)-1H-benzo[d]imidazole-carboxylic acid], the EC50 in data set [1] (setting [3]) worked out at 20.8 nM. Besides, in data set [2], the “Predicted Hepatic Clearance (Pred. Cl.)” value was 14.8 mL/min/kg.
Take `COCCn1c(Cc2ccc(-c3cccc(OCc4ccc(C#N)cc4F)n3)cc2COC)nc2ccc(C(=O)O)cc21` [Example 411, 2-(4-(6-((4-cyano-2-fluorobenzyl)oxy)pyridin-2-yl)-2-(methoxymethyl)benzyl)-1-(2-methoxyethyl)-1H-benzo[d]imidazole-6-carboxylic acid]: the midpoint of the response in data set [1] (EC50 (nM)), the EC50, lay at 140 nM. Besides, the “Predicted Hepatic Clearance (Pred. Cl.)” value in data set [2] is 9.33 mL/min/kg.
